The target of assay [1] is His-tagged KRAS G12D protein (Homo sapiens (Human), UniProt P01116, G12D). Briefly: KRAS G12D TR-FRET Assay. The format is binding. As to conditions: read-out: KRAS G12D Binding IC50. The protocol:
Compounds of interest were prepared in a dose-response titration in DMSO, and 80 nL were added via Labcyte Echo to each well of a 384-well plate (Perkin Elmer 6008280). The His-tagged KRAS G12D protein (Amgen) was diluted to 20 nM in Assay Buffer (20 mM HEPES, pH 7.4, 10 mM MgCl2, 50 mM NaCl, 0.1% BSA, 0.01% Tween-20, 10 μM GDP) and 2 μL was added to the appropriate wells of the 384-well plate. The plate was incubated for 30 minutes at room temperature. Biotinylated KRPep-2d substrate (Amgen) was diluted to 20 nM in Assay Buffer and 2 μL was added to all wells and incubated for 1 hour at room temperature. Detection Reagent (0.4 nM LANCE Eu-W1024 Anti-6×His (Perkin Elmer AD0401), 5 nM streptavidin-d2 (Cisbio 610SADLA)) was prepared in Assay Buffer, then 4 μL was added to the plate and incubated for 1 hour at room temperature. Plates were read using PerkinElmer EnVision (ex: 320 nm, em1: 665 nm, em2: 615 nm) and em1/em2 data was used to generate curve fits using a 4-parameter logistic model to calculate IC50 values.

In assay [2] the target is GDP-bound KRAS protein (aa 1-169), containing both G12D and C118A amino acid substitutions (Homo sapiens (Human), UniProt P01116, C118A/G12D). Kind of assay: KRAS G12D Coupled Nucleotide Exchange Assay. Type of assay: biochemical. As to conditions: read-out: KRAS G12D Coupled Exchange IC50. The protocol: KRAS G12D Coupled Nucleotide Exchange Assay
Chain of GDP-bound KRAS protein (aa 1-169), containing both G12D and C118A amino acid substitutions (P01116 other isoform, or with tags, fused parts or gaps G12D/C118A): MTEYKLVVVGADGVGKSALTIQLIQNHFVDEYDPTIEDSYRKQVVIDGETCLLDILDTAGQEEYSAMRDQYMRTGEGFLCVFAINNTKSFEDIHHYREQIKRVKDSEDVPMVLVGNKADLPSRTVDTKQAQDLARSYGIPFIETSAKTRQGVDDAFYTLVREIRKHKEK
Following compound pre-incubation, purified SOS protein (aa 564-1049) and GTP (Roche 10106399001) were added to the assay wells and incubated for an additional 30 min. To determine the extent of inhibition of SOS-mediated nucleotide exchange, purified GST-tagged cRAF (aa 1-149), nickel chelate AlphaLISA acceptor beads (PerkinElmer AL108R), and AlphaScreen glutathione donor beads (PerkinElmer 6765302) were added to the assay wells and incubated for 10 minutes. The assay plates were then read on a PerkinElmer EnVision Multilabel Reader, using AlphaScreen® technology, and data were analyzed using a 4-parameter logistic model to calculate IC50 values.

Each structure is given as a SMILES string.

Chain of His-tagged KRAS G12D protein (P01116 other isoform, or with tags, fused parts or gaps G12D): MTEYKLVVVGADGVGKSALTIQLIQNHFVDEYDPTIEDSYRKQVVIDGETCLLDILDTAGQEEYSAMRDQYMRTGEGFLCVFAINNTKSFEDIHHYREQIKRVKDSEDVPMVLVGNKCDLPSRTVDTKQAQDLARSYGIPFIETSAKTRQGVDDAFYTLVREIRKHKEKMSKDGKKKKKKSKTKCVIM

The term IC50 denotes the concentration that gives 50% inhibition. On to `O=C1CCCCc2c(Cl)cccc2-c2ncc3c(nc(OC[C@@]45CCCN4C[C@H](F)C5)nc3c2F)N2CC[C@@H]3CCN1[C@@H]3C2` [Example 163, (25R,29S)-15-chloro-30-fluoro-4-(((2R,7aS)-2-fluorotetrahydro-1H-pyrrolo[1,2-a]pyrrol-7a(5H)-yl)methoxy)-1,3,5,9,22-pentaazahexacyclo[20.5.2.1~6,10~.0~2,7~.0~11,16~.0~25,29~]triaconta-2,4,6,8,10(30),11,13,15-octaen-21-one], for which the IC50 in assay [1] came out at 2840 nM; in assay [2] it was 1570 nM.
The matching figures for `C[C@]12CCCCN(C1)c1nc(OC[C@@]34CCCN3C[C@H](F)C4)nc3c(F)c(ncc13)-c1c(c(Cl)cc3[nH]ncc13)CCCCC(=O)N2` [Example 165, (26S)-18-chloro-32-fluoro-4-(((2R,7aS)-2-fluorotetrahydro-1H-pyrrolo[1,2-a]pyrrol-7a(5H)-yl)methoxy)-26-methyl-1,3,5,9,14,15,25-heptaazahexacyclo[24.4.1.1~6,10~.0~2,7~.0~11,19~.0~12,16~]dotriaconta-2,4,6,8,10(32),11,13,16,18-nonaen-24-one]: 12700 nM and 4430 nM.
Taken in the same sequence, the figures for `O=C1CCCCc2c(Cl)cc3[nH]ncc3c2-c2ncc3c(nc(OC[C@@]45CCCN4C[C@H](F)C5)nc3c2F)N2C[C@H]3CN1[C@H]3C2` [Example 169, (18S,19R)-9-chloro-30-fluoro-24-(((2R,7aS)-2-fluorotetrahydro-1H-pyrrolo[1,2-a]pyrrol-7a(5H)-yl)methoxy)-5,6,16,21,23,25,29-heptaazaheptacyclo[24.3.1.1~18,21~.0~2,10~.0~3,7~.0~16,19~.0~22,27~]hentriaconta-1(30),2,4,7,9,22,24,26,28-nonaen-15-one] were 616 nM and 339 nM.
Taken in the same sequence, the figures for `Cc1cc2[nH]ncc2c2c1CCCCC(=O)N[C@@H]1CN(C[C@@H]3C[C@@H]31)c1nc(OC[C@@]34CCCN3C[C@H](F)C4)nc3c(F)c-2ncc13` [Example 170, (26S,27S,29R)-32-fluoro-4-(((2R,7aS)-2-fluorotetrahydro-1H-pyrrolo[1,2-a]pyrrol-7a(5H)-yl)methoxy)-18-methyl-1,3,5,9,14,15,25-heptaazaheptacyclo[24.4.1.1~6,10~.0~2,7~.0~11,19~.0~12,16~.0~27,29~]dotriaconta-2,4,6,8,10(32),11,13,16,18-nonaen-24-one] were 2490 nM and 1540 nM.
Consider `O=C1N[C@@H]2CN(C[C@@H]3C[C@@H]32)c2nc(OC[C@@]34CCCN3C[C@H](F)C4)nc3c(F)c(ncc23)-c2c(c(Cl)cc3[nH]ncc23)CCC[C@H]1F` [Example 172, (23R,26S,27S,29R)-18-chloro-23,32-difluoro-4-(((2R,7aS)-2-fluorotetrahydro-1H-pyrrolo[1,2-a]pyrrol-7a(5H)-yl)methoxy)-1,3,5,9,14,15,25-heptaazaheptacyclo[24.4.1.1~6,10~.0~2,7~.0~11,19~.0~12,16~.0~27,29~]dotriaconta-2,4,6,8,10(32),11,13,16,18-nonaen-24-one], for which the IC50 in assay [1] amounted to 1770 nM; in assay [2], 1030 nM.
The matching figures for `O=C1N[C@H]2CN(C[C@H]3C[C@H]32)c2nc(OC[C@@]34CCCN3C[C@H](F)C4)nc3c(F)c(ncc23)-c2c(c(Cl)cc3[nH]ncc23)CCC[C@H]1F` [Example 173, (23R,26R,27R,29S)-18-chloro-23,32-difluoro-4-(((2R,7aS)-2-fluorotetrahydro-1H-pyrrolo[1,2-a]pyrrol-7a(5H)-yl)methoxy)-1,3,5,9,14,15,25-heptaazaheptacyclo[24.4.1.1~6,10~.0~2,7~.0~11,19~.0~12,16~.0~27,29~]dotriaconta-2,4,6,8,10(32),11,13,16,18-nonaen-24-one]: 1570 nM and 1110 nM.

(Values after US20240294551A1 (AMGEN INC., priority 2022, published 2024).)
